Laboratory results from article PMC3776838, “Detection of Phospho-Sites Generated by Protein Kinase CK2 in CFTR: Mechanistic Aspects of Thr1471 Phosphorylation” (PLoS ONE, 2013).
“Also recorded” adds a separate entry of the source.

Key:
[1] = tested on: WT, WT/T1471A or Phe508delCFTR; assay: CFTR bands B and C in BHK cells exposed to CHX or Brefeldin A; type: cell-based, human
Protocol: Baby hamster kidney cells (BHK) stably expressing human CFTR (hCFTR) either wild type (WT), or Phe508del, or WT T1471A were growth to reach 70–80% confluency. After 2 h-long treatment with 100 µg/mL cyclohexamide, cells were washed with PBS and incubated with 2 µM CX4945 or its vehicle for the indicated time. At each time-point cells were washed with ice-cold PBS, scraped from the plates, pelleted by centrifugation (1200 g for 5 min at room tempertaure) and lysed in a buffer containing 1% (v/v) Nonidet P40, 50 mM Tris/HCl (pH 7.5) and 150 mM NaCl with fresh protease inhibitor tablets (Roche), 1 µM Okadaic acid (Alexis) and phosphatases inhibitors cocktails 2 and 3 (Sigma). Cells were lysed by incubation on ice for 30 min and then the lysates were cleared by centrifugation at 17000 g for 30 min at 4°C. The supernatant was collected and subjected to protein concentration quantification.
Western blot analysis was performed as described in [14] using a modified Laemmli buffer containing 105 mM dithiothreitol (final concentration) to enhance the solubilization of CFTR. 20–30 µg of total proteins were separated on 4–12% precast NuPage® Bis-Tris gradient gels (Invitrogen) according to the manufacturer’s instructions and transferred on to Optitran BA-S 83 nitrocellulose membranes (Whatman) with a semi-dry blotter (Biometra) for 1 h at 150 mA. Membranes were saturated for 1 h with 5% skimmed milk in Tris-buffered saline (TBS) containing 0.2% Tween 20. Immunoblots were developed by enhanced chemiluminescence, detected on Kodak Image Station 440 cf and analyzed by the Kodak 1D image software. Tubulin was used as loading control.
Supplementary file pone.0074232.s004.tif: Figure S4 BHK cells expressing WT, WT/T1471A or Phe508delCFTR were exposed to either cycloheximide (CHX, 100 µg/ml) or Brefeldin A (BFA, 200 ng/ml). […] [a] Glozman R, Okiyoneda T, Mulvihill CM, Rini JM, Barriere H, Lukacs GL (2009) N-glycans are direct determinants of CFTR folding and stability in secretory and endocytic membrane traffic. J. Cell Biol. 184, 847–862. (TIF) Click here for additional data file.

PLK3 = assay: Phosphorylation of the 42-mer CFTR peptide by PLK3; type: biochemical; conditions: same conditions as with CK2 holoenzyme, Figure 2B
Excerpt: (§1) CK1 isoforms and PLK 2 and 3 were obtained as described in [21], and [22], respectively.
(§2) Recombinant mouse full length CFTR (mCFTR) was cloned, expressed and purified as described in [20]. A 42-mer peptide reproducing the C-terminal tail of human CFTR (residues 1439–1480) was expressed in Escherichia coli with an N-terminal His tag and purified using affinity chromatography (Talon) followed by cleavage of the His tag by thrombin. Further details are given in the Material S1.
(§3) Peptides derived from human CFTR C-terminal region were phosphorylated by incubation in a 20-µl volume containing 50 mM Tris/HCl, pH 7.5, 10 mM MgCl2, 100 mM NaCl, and 50 µM [γ-^33P]ATP (specific radioactivity 1,500–2,000 cpm/pmol). The reaction was started by the addition of the indicated protein kinases. […] Samples were separated on Tricine-SDS-PAGE following the Schägger’s protocol in a running buffer composed of 100 mM Tris/HCl, pH 8.3, 100 mM Tricine, 0.1% (w/v) SDS. ^33P incorporation was evaluated by gels autoradiography on PerkinElmer’s Cyclone Plus Storage Phosphor System. Initial rate data were analyzed with the program Prism (GraphPad Software, La Jolla, CA).

PLK2 = assay: Phosphorylation of the 42-mer CFTR peptide by PLK2; type: biochemical; conditions: same conditions as with CK2 holoenzyme, Figure 2B
Excerpt: as §1, §2, §3

[2] = target: T1, CK2 holoenzyme (CK2 α2β2) (Homo sapiens, UniProt P67870+P68400); assay: Phosphorylation of CFTR C-terminal peptides by CK2 holoenzyme (33P incorporation); type: biochemical; conditions: pH 7.5, 50 µM [γ-33P]ATP, 10 min, 37°C; for Kprime / Khalf / Vmax: Figure 3C, allosteric (sigmoidal) model, GraphPad Prism; for Kprime: Kprime = Khalf^h, not equal to Km unless h = 1; for phosphorylation by CK2 holoenzyme: Tricine-SDS-PAGE, autoradiography, Figures 2A and 3
T1 construct: made in house; host or cells: Escherichia coli
Protocol: (§4) Human CK2, both the α-catalytic subunit and the α2β2-holoenzyme were expressed in Escherichia coli. CK2α2β2 holoenzyme was reconstituted by mixing pellets expressing CK2α and CK2β independently. Cells were lysed by French press at 4°C in Tris/HCl 25 mM, pH 8, NaCl 0.4 M, DTT 1 mM, proteases inhibitors cocktail (Roche). The soluble fraction obtained after 30 min centrifugation at 15000 g was applied on Heparin-Sepharose and the proteins were separated using a gradient elution (0.4–1 M NaCl). Fractions containing CK2 were further purified by size-exclusion chromatography using a buffer composed by Tris/HCl 25 mM, pH 8, NaCl 0.5 M, DTT 1 mM.
as §2
Synthetic peptide encompassing the last 20 residues of human CFTR C-terminal domain ([…], residues 1461–1480) was obtained by solid phase peptide synthesis method using a multiple peptide synthesizer (SyroII, MultiSynTech GmbH) on p-Benzyloxybenzyl alcohol resin (100–200 mesh) HMP resin (Novabiochem). The fluoren-9-ylmethoxycarbonyl (Fmoc) strategy was used throughout the peptide chain assembly, utilizing O-(7-Azabenzotriazol-1-yl)-N,N,N′,N′-tetramethyluronium hexafluorophosphate (HATU) as coupling reagent. The side-chain protected amino acid building blocks used were: N-α-Fmoc-Nω-(2,2,4,6,7-pentamethyldihydrobenzofuran-5-sulfonyl)-L-arginine, N-α-Fmoc-γ-tert-butyl-L-glutamic acid, N-α-Fmoc-β-tert-butyl-L-aspartic acid, N-α-Fmoc-O-tert-butyl-L-threonine, N-α-Fmoc-Nε-(tert-butyloxycarbonyl)-L-lysine, N-α-Fmoc-N-γ-trityl-L-glutamine. Cleavage of the peptide was performed by reacting the peptidyl-resin with a mixture containing TFA/ethanedithiol/phenol 5% for 2.5 h. Crude peptide were purified by a preparative reverse phase HPLC. Molecular mass of the peptide were confirmed by mass spectroscopy on a MALDI TOF-TOF mass spectrometer (model 4800– AB Sciex). The purity (>90%) was evaluated by analytical reverse phase HPLC.
(§5) Peptides derived from human CFTR C-terminal region were phosphorylated by incubation in a 20-µl volume containing 50 mM Tris/HCl, pH 7.5, 10 mM MgCl2, 100 mM NaCl, and 50 µM [γ-^33P]ATP (specific radioactivity 1,500–2,000 cpm/pmol). The reaction was started by the addition of the indicated protein kinases. The reaction mixtures were incubated for 10 minutes at 37°C and stopped by the addition of 2× concentrated Tricine sample buffer (450 mM Tris HCl, pH 8.45, 12% (v/v) glycerol, 4% (w/v) SDS, 0.0025% (w/v) Coomassie Blue G, 0.0025% (w/v) Phenol Red and 105 mM DTT). Samples were separated on Tricine-SDS-PAGE following the Schägger’s protocol in a running buffer composed of 100 mM Tris/HCl, pH 8.3, 100 mM Tricine, 0.1% (w/v) SDS. ^33P incorporation was evaluated by gels autoradiography on PerkinElmer’s Cyclone Plus Storage Phosphor System. Initial rate data were analyzed with the program Prism (GraphPad Software, La Jolla, CA).

CK1 = assay: Phosphorylation of the 42 amino acid CFTR peptide by CK1; type: biochemical; conditions: not shown; listed as 42 amino acid peptide
Excerpt: as §1, §2, §3

GCK/FAM20C = assay: Phosphorylation of the 42 amino acid CFTR peptide by Golgi apparatus casein kinase; type: biochemical; conditions: not shown; listed as 42 amino acid peptide
Protocol: as §2, §5

CK2 α-catalytic subunit = assay: Phosphorylation of the 42-mer CFTR peptide by isolated CK2 α-catalytic subunit; type: biochemical, human; conditions: 0.4 µg peptide, pH 7.5, 50 µM [γ-33P]ATP, 10 min, 37°C, autoradiography, Figure 2A
Protocol: as §4
Recombinant mouse full length CFTR (mCFTR) was cloned, expressed and purified as described in [20]. […]
as §3, with “cpm/pmol).” for “cpm/pmol). The reaction was started by the addition of the indicated protein kinases.”

[3] = CHX 100 µg/ml, 2 h, Figures 5 and S4
[4] = listed as 42 amino acid peptide
[5] = listed as 42 amino acid-long recombinant fragment

T1 sequence (P68400 whole entry): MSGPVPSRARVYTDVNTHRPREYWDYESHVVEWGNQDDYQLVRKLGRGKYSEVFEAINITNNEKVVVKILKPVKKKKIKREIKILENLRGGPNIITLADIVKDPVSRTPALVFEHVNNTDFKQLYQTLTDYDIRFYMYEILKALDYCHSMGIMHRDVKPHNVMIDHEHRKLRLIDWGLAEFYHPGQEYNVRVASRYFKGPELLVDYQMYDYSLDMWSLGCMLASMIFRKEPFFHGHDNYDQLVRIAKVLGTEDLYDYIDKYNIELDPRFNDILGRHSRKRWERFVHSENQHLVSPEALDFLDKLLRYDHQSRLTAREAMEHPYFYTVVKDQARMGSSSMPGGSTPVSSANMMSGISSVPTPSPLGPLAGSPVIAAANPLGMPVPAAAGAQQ
T1 sequence (P67870 whole entry): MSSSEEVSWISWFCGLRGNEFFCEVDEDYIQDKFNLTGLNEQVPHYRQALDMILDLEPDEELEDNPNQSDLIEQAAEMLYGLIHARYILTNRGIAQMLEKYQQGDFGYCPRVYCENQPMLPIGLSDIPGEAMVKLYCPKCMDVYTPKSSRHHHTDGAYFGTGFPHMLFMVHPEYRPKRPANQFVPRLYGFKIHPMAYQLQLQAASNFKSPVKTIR

C[C@H]1CCC/C=C/[C@@H]2C[C@H](O)C[C@H]2[C@H](O)/C=C/C(=O)O1 [Brefeldin A]
effect on CFTR band B (immature core-glycosylated, ER-resident) ([1]; Brefeldin A 200 ng/ml, Figure S4): opposite effects on the fate of band B; also recorded: band B increases

C[C@@H]1C[C@@H]([C@H](O)CC2CC(=O)NC(=O)C2)C(=O)[C@@H](C)C1 [CHX, cycloheximide]
effect on CFTR band B (immature core-glycosylated, ER-resident) [1, 3]: fast and almost complete disappearance of band B; also recorded: attenuation/disappearance of the ER-resident band B of CFTR
effect on CFTR band C (mature fully glycosylated) [1, 3]: much slower; also recorded: the fully mature band C is not affected by CHX treatment

CFTR[1439-1480]: 42-mer peptide reproducing the C-terminal tail of human CFTR (residues 1439–1480), expressed in Escherichia coli with N-terminal His tag, cleaved by thrombin (QAISPSDRVKLFPHRNSSKCKSKPQIAALKEETEEEVQDTRL; left off: His tag, N-terminal, cleaved)
phosphorylation by PLK3 (PLK3): very low as compared to that obtained with CK2 holoenzyme
phosphorylation by PLK3 (PLK3; [4]): nor by other acidophilic Ser/Thr kinases (CK1, PLK2/3, GCK/FAM20C); also recorded: a weak phosphorylation was observed
phosphorylation by PLK2 (PLK2): very low as compared to that obtained with CK2 holoenzyme
phosphorylation by PLK2 (PLK2; [4]): nor by other acidophilic Ser/Thr kinases (CK1, PLK2/3, GCK/FAM20C); also recorded: a weak phosphorylation was observed
Kprime [2]: 3.13 µM
Khalf [2]: 1.49 µM
Vmax [2]: 90.5 DLUx10^-6
phosphorylation by CK2 holoenzyme [2, 4]: readily phosphorylated at Thr1471
phosphorylation by CK2 holoenzyme [2, 5]: readily phosphorylated by CK2 holoenzyme
phosphorylation by CK2 holoenzyme ([2]; listed as recombinant fragment of human CFTR): readily phosphorylated, with favorable kinetics, at Thr1471 by CK2 holoenzyme
phosphorylation by CK1 (CK1): nor by other acidophilic Ser/Thr kinases (CK1, PLK2/3, GCK/FAM20C); also recorded: unable to phosphorylate the 42 amino acid peptide
phosphorylation by GCK/FAM20C (GCK/FAM20C): nor by other acidophilic Ser/Thr kinases (CK1, PLK2/3, GCK/FAM20C); also recorded: unable to phosphorylate the 42 amino acid peptide
phosphorylation by isolated CK2 catalytic α-subunit (CK2 α-catalytic subunit; [4]): neither by its isolated catalytic subunit
phosphorylation by isolated CK2 catalytic α-subunit (CK2 α-catalytic subunit; [5]): not by the isolated catalytic α-subunit alone

KPQIAALKEETEEEVQDTRL [CFTR[1461-1480], Synthetic peptide encompassing the last 20 residues of human CFTR C-terminal domain]
Kprime [2]: 1430 µM
Khalf [2]: 1290 µM
Vmax [2]: 1477 DLUx10^-6
phosphorylation by CK2 holoenzyme ([2]; listed as shorter synthetic peptide encompassing Thr1471): also phosphorylated by CK2 albeit with lower efficiency
phosphorylation by CK2 holoenzyme ([2]; listed as synthetic peptide encompassing the last 20 residues of hCFTR): can also be phosphorylated by CK2 holoenzyme, although much less efficiently
